Measurements reported in US10131652B2, “Pyrimidinyloxy benzene derivatives as herbicides” (E. I. DU PONT DE NEMOURS AND COMPANY, priority 2014, dated 2018).
Like-named read-outs stand apart in the source and are kept apart here.

How the values were obtained:
Test in all cases: Test E pre-/postemergence plant response
Assay type in all cases: in vivo
[1] = system: speedwell (bird's-eye speedwell, Veronica persica); details: scale 0 to 100, read-out: Plant response rating, Speedwell; for pest or weed control at 16 g/ha: 16 g ai/ha; for pest or weed control at 31 g/ha: 31 g ai/ha; for pest or weed control at 62 g/ha: 62 g ai/ha; for pest or weed control at 125 g/ha: 125 g ai/ha
Text: (§1) Seeds of plant species selected from bluegrass (annual bluegrass, Poa annua), blackgrass (Alopecurus myosuroides), canarygrass (Phalaris minor), chickweed (common chickweed, Stellaria media), galium (catchweed bedstraw, Galium aparine), downy bromegrass (Bromus tectorum), field poppy (Papaver rhoeas), field violet (Viola arvensis), green foxtail (Setaria viridis), deadnettle (henbit deadnettle, Lamium amplexicaule), Italian ryegrass (Lolium multiflorum), kochia (Kochia scoparia), lambsquarters (Chenopodium album), oilseed rape (Brassica napus), pigweed (Amaranthus retroflexus), Russian thistle (Salsola iberica), chamomile (scentless chamomile, Matricaria inodora), speedwell (bird's-eye speedwell, Veronica persica), spring barley (Hordeum vulgare), spring wheat (Triticum aestivum), wild buckwheat (Polygonum convolvulus), wild mustard (Sinapis arvensis), wild oat (Avena fatua), wild radish (Raphanus raphanistrum), windgrass (Apera spica-venti), winter barley (Hordeum vulgare), and winter wheat (Triticum aestivum) were planted into a silt loam soil and treated preemergence with test chemicals formulated in a non-phytotoxic solvent mixture which included a surfactant. At the same time, these species were planted in pots containing Redi-Earth® planting medium (Scotts Company, 14111 Scottslawn Road, Marysville, Ohio 43041) comprising spaghnum peat moss, vermiculite, wetting agent and starter nutrients and treated with postemergence applications of the test chemicals formulated in the same manner. Plants ranged in height from 2 to 18 cm (1- to 4-leaf stage).
(§2) Treated plants and controls were maintained in a controlled growth environment for 7 to 21 days after which time all species were compared to controls and visually evaluated. Plant response ratings, summarized in Table E, are based on a scale of 0 to 100 where 0 is no effect and 100 is complete control. A dash (-) response means no test result.

[2] = system: wild mustard (Sinapis arvensis); details: Brassica, scale 0 to 100, read-out: Plant response rating, Mustard, Wild; for pest or weed control at 16 g/ha: 16 g ai/ha; for pest or weed control at 31 g/ha: 31 g ai/ha; for pest or weed control at 62 g/ha: 62 g ai/ha; for pest or weed control at 125 g/ha: 125 g ai/ha
Text: as §1, §2

[3] = system: field violet (Viola arvensis); details: scale 0 to 100, read-out: Plant response rating, Field Violet; for pest or weed control at 16 g/ha: 16 g ai/ha; for pest or weed control at 31 g/ha: 31 g ai/ha; for pest or weed control at 62 g/ha: 62 g ai/ha; for pest or weed control at 125 g/ha: 125 g ai/ha
Text: as §1, §2

[4] = system: green foxtail (Setaria viridis); details: scale 0 to 100, read-out: Plant response rating, Foxtail, Green; for pest or weed control at 16 g/ha: 16 g ai/ha; for pest or weed control at 31 g/ha: 31 g ai/ha; for pest or weed control at 62 g/ha: 62 g ai/ha; for pest or weed control at 125 g/ha: 125 g ai/ha
Text: as §1, §2

[5] = system: oilseed rape (Brassica napus); details: scale 0 to 100, read-out: Plant response rating, Oilseed Rape; for plant injury at 16 g/ha: 16 g ai/ha; for plant injury at 31 g/ha: 31 g ai/ha; for plant injury at 62 g/ha: 62 g ai/ha; for plant injury at 125 g/ha: 125 g ai/ha
Text: as §1, §2

[6] = system: wild oat (Avena fatua); details: scale 0 to 100, read-out: Plant response rating, Oat, Wild; for pest or weed control at 16 g/ha: 16 g ai/ha; for pest or weed control at 31 g/ha: 31 g ai/ha; for pest or weed control at 62 g/ha: 62 g ai/ha; for pest or weed control at 125 g/ha: 125 g ai/ha
Text: as §1, §2

[7] = system: wild buckwheat (Polygonum convolvulus); details: Fallopia convolvulus, scale 0 to 100, read-out: Plant response rating, Buckwheat, Wild; for pest or weed control at 16 g/ha: 16 g ai/ha; for pest or weed control at 31 g/ha: 31 g ai/ha; for pest or weed control at 62 g/ha: 62 g ai/ha; for pest or weed control at 125 g/ha: 125 g ai/ha
Text: as §1, §2

`FC(F)c1cc(-c2ccccc2Oc2ncc(Br)cn2)no1` [Compound 62, 5-bromo-2-[2-[5-(difluoromethyl)-3-isoxazolyl]phenoxy]pyrimidine] showed a pest or weed control at 16 g/ha ([1]; post-emergence, Postemergence) of 70%, a pest or weed control at 31 g/ha ([1]; post-emergence, Postemergence) of 95% and a pest or weed control at 62 g/ha ([1]; post-emergence, Postemergence) of 100%. The pest or weed control at 125 g/ha ([1]; post-emergence, Postemergence) was 100%, the pest or weed control at 16 g/ha ([1]; pre-emergence, Preemergence) was 95% and the pest or weed control at 62 g/ha ([1]; pre-emergence, Preemergence) was 95%. The pest or weed control at 125 g/ha ([1]; pre-emergence, Preemergence) was 100%, the pest or weed control at 16 g/ha ([2]; post-emergence, Postemergence) was 75% and the pest or weed control at 31 g/ha ([2]; post-emergence, Postemergence) was 100%. It also gave a pest or weed control at 62 g/ha ([2]; post-emergence, Postemergence) of 100%, a pest or weed control at 125 g/ha ([2]; post-emergence, Postemergence) of 100% and a pest or weed control at 16 g/ha ([2]; pre-emergence, Preemergence) of 25%. For the same compound, the pest or weed control at 31 g/ha ([2]; pre-emergence, Preemergence) was 80%, the pest or weed control at 62 g/ha ([2]; pre-emergence, Preemergence) was 95% and the pest or weed control at 125 g/ha ([2]; pre-emergence, Preemergence) was 100%. The pest or weed control at 16 g/ha ([3]; post-emergence, Postemergence) was 60%, the pest or weed control at 31 g/ha ([3]; post-emergence, Postemergence) was 65% and the pest or weed control at 62 g/ha ([3]; post-emergence, Postemergence) was 70%. For the same compound, the pest or weed control at 125 g/ha ([3]; post-emergence, Postemergence) was 85%, the pest or weed control at 16 g/ha ([3]; pre-emergence, Preemergence) was 0% and the pest or weed control at 31 g/ha ([3]; pre-emergence, Preemergence) was 10%. For the same compound, the pest or weed control at 62 g/ha ([3]; pre-emergence, Preemergence) was 35%, the pest or weed control at 125 g/ha ([3]; pre-emergence, Preemergence) was 100% and the pest or weed control at 16 g/ha ([4]; post-emergence, Postemergence) was 15%. The pest or weed control at 31 g/ha ([4]; post-emergence, Postemergence) was 20%, the pest or weed control at 62 g/ha ([4]; post-emergence, Postemergence) was 25% and the pest or weed control at 125 g/ha ([4]; post-emergence, Postemergence) was 65%. For the same compound, the pest or weed control at 16 g/ha ([4]; pre-emergence, Preemergence) was 20%, the pest or weed control at 31 g/ha ([4]; pre-emergence, Preemergence) was 40% and the pest or weed control at 62 g/ha ([4]; pre-emergence, Preemergence) was 65%. The pest or weed control at 125 g/ha ([4]; pre-emergence, Preemergence) was 85%, the plant injury at 16 g/ha ([5]; post-emergence, Postemergence) was 65% and the plant injury at 31 g/ha ([5]; post-emergence, Postemergence) was 80%. The plant injury at 62 g/ha ([5]; post-emergence, Postemergence) was 80%, the plant injury at 125 g/ha ([5]; post-emergence, Postemergence) was 100% and the plant injury at 16 g/ha ([5]; pre-emergence, Preemergence) was 10%. The plant injury at 31 g/ha ([5]; pre-emergence, Preemergence) was 25%, the plant injury at 62 g/ha ([5]; pre-emergence, Preemergence) was 65% and the plant injury at 125 g/ha ([5]; pre-emergence, Preemergence) was 100%. The pest or weed control at 16 g/ha ([6]; post-emergence, Postemergence) was 15%, the pest or weed control at 31 g/ha ([6]; post-emergence, Postemergence) was 25% and the pest or weed control at 62 g/ha ([6]; post-emergence, Postemergence) was 35%. For the same compound, the pest or weed control at 125 g/ha ([6]; post-emergence, Postemergence) was 60%, the pest or weed control at 16 g/ha ([6]; pre-emergence, Preemergence) was 0% and the pest or weed control at 31 g/ha ([6]; pre-emergence, Preemergence) was 10%. The pest or weed control at 62 g/ha ([6]; pre-emergence, Preemergence) was 15%, the pest or weed control at 125 g/ha ([6]; pre-emergence, Preemergence) was 20% and the pest or weed control at 16 g/ha ([7]; post-emergence, Postemergence) was 75%. It also gave a pest or weed control at 31 g/ha ([7]; post-emergence, Postemergence) of 80%, a pest or weed control at 62 g/ha ([7]; post-emergence, Postemergence) of 95% and a pest or weed control at 125 g/ha ([7]; post-emergence, Postemergence) of 100%. The pest or weed control at 16 g/ha ([7]; pre-emergence, Preemergence) was 25%, the pest or weed control at 31 g/ha ([7]; pre-emergence, Preemergence) was 35% and the pest or weed control at 62 g/ha ([7]; pre-emergence, Preemergence) was 80%. The pest or weed control at 125 g/ha ([7]; pre-emergence, Preemergence) was 100%.

In the case of `Fc1cccc(Oc2ncc(Cl)cn2)c1-c1cc(C(F)(F)F)on1` [Compound 168, 5-chloro-2-[2-[5-(trifluoromethyl)-3-isoxazolyl]-3-fluorophenoxy]pyrimidine], the pest or weed control at 16 g/ha ([1]; post-emergence, Postemergence) is reported as 80%, the pest or weed control at 31 g/ha ([1]; post-emergence, Postemergence) is reported as 75% and the pest or weed control at 62 g/ha ([1]; post-emergence, Postemergence) is reported as 90%. It also gave a pest or weed control at 125 g/ha ([1]; post-emergence, Postemergence) of 100%, a pest or weed control at 16 g/ha ([1]; pre-emergence, Preemergence) of 100% and a pest or weed control at 62 g/ha ([1]; pre-emergence, Preemergence) of 100%. The pest or weed control at 125 g/ha ([1]; pre-emergence, Preemergence) was 100%, the pest or weed control at 16 g/ha ([2]; post-emergence, Postemergence) was 75% and the pest or weed control at 31 g/ha ([2]; post-emergence, Postemergence) was 95%. For the same compound, the pest or weed control at 62 g/ha ([2]; post-emergence, Postemergence) was 95%, the pest or weed control at 125 g/ha ([2]; post-emergence, Postemergence) was 95% and the pest or weed control at 16 g/ha ([2]; pre-emergence, Preemergence) was 80%. It also gave a pest or weed control at 31 g/ha ([2]; pre-emergence, Preemergence) of 80%, a pest or weed control at 62 g/ha ([2]; pre-emergence, Preemergence) of 95% and a pest or weed control at 125 g/ha ([2]; pre-emergence, Preemergence) of 100%. It also gave a pest or weed control at 16 g/ha ([3]; post-emergence, Postemergence) of 75%, a pest or weed control at 31 g/ha ([3]; post-emergence, Postemergence) of 75% and a pest or weed control at 62 g/ha ([3]; post-emergence, Postemergence) of 90%. The pest or weed control at 125 g/ha ([3]; post-emergence, Postemergence) was 95%, the pest or weed control at 16 g/ha ([3]; pre-emergence, Preemergence) was 85% and the pest or weed control at 31 g/ha ([3]; pre-emergence, Preemergence) was 100%. For the same compound, the pest or weed control at 62 g/ha ([3]; pre-emergence, Preemergence) was 100%, the pest or weed control at 125 g/ha ([3]; pre-emergence, Preemergence) was 100% and the pest or weed control at 16 g/ha ([4]; post-emergence, Postemergence) was 20%. It also gave a pest or weed control at 31 g/ha ([4]; post-emergence, Postemergence) of 60%, a pest or weed control at 62 g/ha ([4]; post-emergence, Postemergence) of 60% and a pest or weed control at 125 g/ha ([4]; post-emergence, Postemergence) of 75%. For the same compound, the pest or weed control at 16 g/ha ([4]; pre-emergence, Preemergence) was 10%, the pest or weed control at 31 g/ha ([4]; pre-emergence, Preemergence) was 100% and the pest or weed control at 62 g/ha ([4]; pre-emergence, Preemergence) was 100%. It also gave a pest or weed control at 125 g/ha ([4]; pre-emergence, Preemergence) of 100%, a plant injury at 16 g/ha ([5]; post-emergence, Postemergence) of 70% and a plant injury at 31 g/ha ([5]; post-emergence, Postemergence) of 85%. The plant injury at 62 g/ha ([5]; post-emergence, Postemergence) was 95%, the plant injury at 125 g/ha ([5]; post-emergence, Postemergence) was 100% and the plant injury at 16 g/ha ([5]; pre-emergence, Preemergence) was 10%. The plant injury at 31 g/ha ([5]; pre-emergence, Preemergence) was 40%, the plant injury at 62 g/ha ([5]; pre-emergence, Preemergence) was 65% and the plant injury at 125 g/ha ([5]; pre-emergence, Preemergence) was 100%. The pest or weed control at 16 g/ha ([6]; post-emergence, Postemergence) was 5%, the pest or weed control at 31 g/ha ([6]; post-emergence, Postemergence) was 10% and the pest or weed control at 62 g/ha ([6]; post-emergence, Postemergence) was 40%. It also gave a pest or weed control at 125 g/ha ([6]; post-emergence, Postemergence) of 65%, a pest or weed control at 16 g/ha ([6]; pre-emergence, Preemergence) of 10% and a pest or weed control at 31 g/ha ([6]; pre-emergence, Preemergence) of 10%. It also gave a pest or weed control at 62 g/ha ([6]; pre-emergence, Preemergence) of 35%, a pest or weed control at 125 g/ha ([6]; pre-emergence, Preemergence) of 50% and a pest or weed control at 16 g/ha ([7]; post-emergence, Postemergence) of 65%. The pest or weed control at 31 g/ha ([7]; post-emergence, Postemergence) was 95%, the pest or weed control at 62 g/ha ([7]; post-emergence, Postemergence) was 95% and the pest or weed control at 125 g/ha ([7]; post-emergence, Postemergence) was 100%. The pest or weed control at 16 g/ha ([7]; pre-emergence, Preemergence) was 0%, the pest or weed control at 31 g/ha ([7]; pre-emergence, Preemergence) was 65% and the pest or weed control at 62 g/ha ([7]; pre-emergence, Preemergence) was 100%. The pest or weed control at 125 g/ha ([7]; pre-emergence, Preemergence) was 100%.
